Laboratory results reported in patent publication US7511074B2, “Tetrafluorobenzyl derivatives and pharmaceutical composition for preventing and treating acute and chronic neurodegenerative diseases in central nervous system containing the same” (AmKor Pharma, Inc., priority 2002, dated 2009).
“Also recorded” adds a separate entry of the source. Read-outs that look alike come from different tables or passages of the source.

How the values were obtained:
NMDA receptor = assay: Whole cell recording of NMDA-induced inward currents in cultured cortical neurons; type: cell-based, mouse
Protocol: Typical NMDA-induced inward currents (NMDA currents) were evoked by applying 300 μM NMDA to cortical neurons which were held at […]. Successive application of various concentrations of 2-Hydroxy-TTBA reduced the response elicited by 300 μM NMDA in a concentration-dependent manner (n=8).
Cortical neurons were treated with 100 μM 2-Hydroxy-TTBA, washed thoroughly, and then applied with 300 μM NMDA.
Whole cell recordings were performed on cortical cell cultures at room temperature as described [Seo et al., J. Pharmacol. Exp. Ther., 299:377-384 (2001)]. Typical NMDA-induced inward currents (NMDA currents) were evoked immediately after applying 300 μM NMDA to cultured cortical neurons which were held at −70 mV.

[1] = tested on: Mouse cortical cell cultures; assay: SNP (sodium nitroprusside) cytotoxicity in mixed cortical cell cultures (LDH assay); type: cell-based; conditions: continuous 5 μM SNP; LDH 24 hr later
Protocol: Mouse cortical cell cultures (DIV 12-14) were exposed to continuously 5 μM sodium nitroprusside (SNP), alone (●) or with inclusion of 0.1-10 mM aspirin (◯), 1-100 μM trolox (▾), or 0.1-10 μM 2-Hydroxy-TTBA (∇). Neuronal death was analyzed 24 hr later by measuring levels of LDH released into the bathing medium, mean ±SEM (n=9-12 culture wells per condition), scaled to mean LDH efflux value 24 hr after sham wash (=0) and continuous exposure to 500 μM NMDA (=100). *, Significant difference from the vehicle control, p<0.05 using ANOVA and Student-Neuman-Keuls' test.
For mixed neuron-glia culture, mouse cerebral cortices were removed from brains of the 14-16 day-old-fetal mice (E14-16), gently triturated and plated on 24 well plates (2×10^5 cells/plate) precoated with 100 μg/ml poly-D-lysine and 4 μg/ml laminine. Cultures were maintained at 37° C. in a humidified 5% CO2 atmosphere. Plating media consist of Eagles minimal essential media (MEM, Earles salts, supplied glutamine-free) supplemented with 5% horse serum, 5% fetal bovine serum, 26.5 mM bicarbonate, 2 mM glutamine, and 21 mM glucose.
After 7-8 days in vitro (DIV 7-8), 10 μM cytosine arabinofuranoside (Ara-C) was included to halt overgrowth of glia. The drug treatment was carried on DIV 12-15 cortical cell culture. Overall neuronal cell injury was assessed by measuring amount of lactate dehydrogenase (LDH) released into the bathing medium 24 hr after neurotoxic insults as previously described [Koh and Choi, J Neurosci Methods 20:83-90, 1987].
Mixed cortical cell cultures were continuously exposed to 5 μM SNP, a nitric oxide (NO) donor, alone or with inclusion of 0.1-10 μM 2-Hydroxy-TTBA, 1-10 μM trolox or 100-10,000 μM aspirin. Neuronal cell death was analyzed 24 hr later by LDH assay. *, Significant difference from the vehicle control (SNP), p<0.05 using ANOVA and Student-Neuman-Keuls' test.

[2] = tested on: Sprague-dawley rats, four-vessel occlusion; assay: Mitochondrial ROS generation after transient global ischemia (four-vessel occlusion); type: in vivo, rat; conditions: 50 mg/kg i.p. after reperfusion; 10 min four-vessel occlusion; analyzed 2 hr later
Protocol: Mitotracker CM-H2X ROS was injected into the lateral ventricle of rat brain at 24 hr before ischemic surgery, and then animals received transient forebrain ischemia for 10 min, with intraperitoneal injections of vehicle (control) or 2-Hydroxy-TTBA (50 mg/kg) at 5 min after reperfusion. The levels of mitochondrial ROS were analyzed 2 hr later, mean ±S.E.M. (n=50-70 neurons randomly chosen from the CA1 sector of the hippocampal formation per each condition). *, Significant difference from the vehicle control, p<0.05 using the independent t-test.
(§1) Male adult Sprague-dawley rats (250-300 g) were anesthetized with chloral hydrate and subjected to four-vessel occlusion model (occlusion of both common carotid arteries and vertebral arteries) as previously described [Pulsinelli and Brierley, stroke 10: 267-272 (1979)].
Rats received the intracerebroventricular injections of 0.4 nmol Mitotracker CM-H2X Ros. After 24 hr, rats received four-vessel occlusion for 10 min. Immediately after reperfusion, rats received the intraperitoneal injections of saline (control) or 2-Hydroxy-TTBA (50 mg/kg). Levels of mitochondrial ROS were analyzed 2 hr later by measuring the fluorescence intensity of oxidized Mitotracker CM-H2X Ros in mitochondria.

[3] = tested on: Sprague-dawley rats, four-vessel occlusion; assay: CA1 neuronal cell death after transient forebrain ischemia; type: in vivo, rat; conditions: 50 mg/kg ip; 10 min four-vessel occlusion; analyzed 3 d later
Protocol: Adult rats received transient global ischemia for 10 min, with intraperitoneal injections of vehicle (control) or 2-Hydroxy-TTBA (50 mg/kg) at 5 min after reperfusion. The number of degenerating neurons in the CA1 was analyzed 3 d later by counting viable neurons after staining with cresyl violet, mean ±S.E.M. *, Significant difference from the vehicle control, p<0.05 using the independent t-test.
as §1
Rats received four-vessel occlusion for 10 min followed by administration of saline (control) or 2-Hydroxy-TTBA (50 mg/kg, ip). Animals were euthanized 3 d later and processed for analysis of neuronal death in the CA1 field after staining with hematoxylin and eosin(mean ±SEM, N=12 rats/condition).

[4] = tested on: Sprague-Dawley rats, compression of T8 spinal cord; assay: Mitochondrial ROS production after traumatic spinal cord injury; type: in vivo, rat; conditions: 50 mg/kg ip immediately after injury; analyzed 48 hr later
Protocol: Adult rats received compression injury at the level of T8 spinal cord, alone (control) or with injections of 2-Hydroxy-TTBA (50 mg/kg, ip) and Mitotracker CM-H2X ROS immediately after injury. Animals were euthanized 2 d later, spinal cord sections sections immunostained with an antibody for NeuN (a neuronal marker protein), and levels of mitochondrial ROS in the dorsal horn neurons (DHN) analyzed by measuring fluorescence intensity of oxidized Mitotracker CM-H2X, mean ±S.E.M. [n=12 rats for each condition (5 spinal cord sections for each rat)]. *, Significant difference from the vehicle control, p<0.05 using the independent t-test.
Sprague-Dawley rats (250-300 g, female) received traumatic spinal cord injury by compression of the dorsal spinal cord. T8 segment of spinal cord was exposed on the dorsal side, compressed with 20 g for 10 min, and then mitochondrial CM-H2X Ros was immediately injected into the spinal cord. 2-Hydroxy-TTBA (50 mg/kg, ip) or a vehicle control (control) was injected with mitochondrial CM-H2X Ros. Levels of mitochondrial ROS in the dorsal horn neurons were analyzed 48 hr later as described above after immunolabeling with anti-NeuN antibody, a neuron-specific marker.

O=C(O)c1cc(NCc2c(F)c(F)c(C(F)(F)F)c(F)c2F)ccc1O [2-Hydroxy-TTBA, 2-hydroxy-5-(2,3,5,6-tetrafluoro-4-trifluoromethylbenzylamino)benzoic acid]
effect on holding currents (NMDA receptor; 100 μM compound alone): had no effect on the holding currents
effect of pretreatment on response to subsequent 300 μM NMDA (NMDA receptor; 100 μM compound applied alone, then 300 μM NMDA, n=6): did not influence NMDA-induced inward currents; also recorded: had little effect
Hill coefficient of dose response relation to NMDA currents (NMDA receptor; 300 μM NMDA, neurons held at −60 mV, n=8): 0.91
IC50 (NMDA receptor; 300 μM NMDA, neurons held at −60 mV, n=8, read-out: IC50 for NMDA currents (FIG. 2a legend)): ~35 µM
IC50 (NMDA receptor; 300 μM NMDA, neurons held at −70 mV, bath application, n=7-15 neurons/condition, read-out: IC50 for depression of NMDA-evoked currents): 30.6 ± 2.96 µM
effect on SNP toxicity [1]: completely blocked
strength relative to trolox in preventing NO toxicity [1]: 100 fold
production of mitochondrial ROS after transient global ischemia [2]: reduced production of mitochondrial ROS
delayed neuronal cell death in the CA1 areas [3]: prevented delayed neuronal cell death
mitochondrial ROS production in spinal cord neurons [4]: significantly reduced mitochondrial ROS production
